Assay results reported in ChEMBL document CHEMBL3822429, “Identification of novel EZH2 inhibitors through pharmacophore-based virtual screening and biological assays” (Bioorg Med Chem Lett, 2016).

Target: DNA (cytosine-5)-methyltransferase 1 (Homo sapiens) (UniProt P26358)
Sequence (P26358 whole entry): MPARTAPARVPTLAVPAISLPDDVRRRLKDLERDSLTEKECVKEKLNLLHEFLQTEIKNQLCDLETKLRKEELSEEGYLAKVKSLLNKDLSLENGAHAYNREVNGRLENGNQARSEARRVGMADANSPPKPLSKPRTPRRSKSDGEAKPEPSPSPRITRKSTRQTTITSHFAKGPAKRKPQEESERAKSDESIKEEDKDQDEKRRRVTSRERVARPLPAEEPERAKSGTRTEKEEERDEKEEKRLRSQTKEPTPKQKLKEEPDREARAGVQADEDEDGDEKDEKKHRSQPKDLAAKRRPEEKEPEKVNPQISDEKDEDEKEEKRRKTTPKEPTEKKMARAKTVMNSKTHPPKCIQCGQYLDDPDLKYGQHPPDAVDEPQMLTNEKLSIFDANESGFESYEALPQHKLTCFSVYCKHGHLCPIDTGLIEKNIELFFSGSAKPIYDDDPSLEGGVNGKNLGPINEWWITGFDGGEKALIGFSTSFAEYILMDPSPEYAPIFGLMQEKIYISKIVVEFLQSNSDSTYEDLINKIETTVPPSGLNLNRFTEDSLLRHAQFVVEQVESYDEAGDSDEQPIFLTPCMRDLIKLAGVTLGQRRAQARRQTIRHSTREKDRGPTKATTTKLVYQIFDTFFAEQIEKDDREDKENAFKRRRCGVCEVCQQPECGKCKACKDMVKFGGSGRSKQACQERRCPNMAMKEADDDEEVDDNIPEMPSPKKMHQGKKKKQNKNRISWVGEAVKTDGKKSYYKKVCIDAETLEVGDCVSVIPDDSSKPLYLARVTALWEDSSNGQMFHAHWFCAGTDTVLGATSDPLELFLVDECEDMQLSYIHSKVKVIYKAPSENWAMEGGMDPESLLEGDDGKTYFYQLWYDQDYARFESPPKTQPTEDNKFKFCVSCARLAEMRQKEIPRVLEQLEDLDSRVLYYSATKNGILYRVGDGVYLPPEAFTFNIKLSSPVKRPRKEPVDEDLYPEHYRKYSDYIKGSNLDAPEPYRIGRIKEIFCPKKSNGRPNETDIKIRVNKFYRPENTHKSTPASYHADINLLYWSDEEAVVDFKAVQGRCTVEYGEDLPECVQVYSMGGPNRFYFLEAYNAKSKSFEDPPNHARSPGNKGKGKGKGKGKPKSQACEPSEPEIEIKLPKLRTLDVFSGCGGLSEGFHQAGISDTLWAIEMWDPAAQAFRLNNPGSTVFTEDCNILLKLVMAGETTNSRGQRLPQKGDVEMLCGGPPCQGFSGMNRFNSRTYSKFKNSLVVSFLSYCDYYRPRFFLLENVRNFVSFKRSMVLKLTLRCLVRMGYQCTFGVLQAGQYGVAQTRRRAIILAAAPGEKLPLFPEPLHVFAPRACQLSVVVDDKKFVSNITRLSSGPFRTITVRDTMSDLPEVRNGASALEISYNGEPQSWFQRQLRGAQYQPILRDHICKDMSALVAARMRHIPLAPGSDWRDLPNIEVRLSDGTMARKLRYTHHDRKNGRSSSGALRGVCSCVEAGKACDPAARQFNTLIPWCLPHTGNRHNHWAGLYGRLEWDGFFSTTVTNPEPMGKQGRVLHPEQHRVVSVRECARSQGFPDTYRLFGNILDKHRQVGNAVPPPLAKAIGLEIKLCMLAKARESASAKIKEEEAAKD
Assay: Inhibition of human DNMT1 assessed as DNA methylation at 50 uM preincubated for 15 mins followed by addition of poly(dI-dC) and [3H]SAM as substrate measured after 2 hrs by radioactive methylation assay
In the case of COc1ccc2nc(Nc3nc(O)cc(CSc4nnnn4-c4ccccc4)n3)nc(C)c2c1, the inhibition is reported as 0%.

Target: T1, Histone-lysine N-methyltransferase EZH2 (Homo sapiens, UniProt Q15910)
Assay: Inhibition of PRC2 EZH2 sub unit (unknown origin) assessed as inhibition of SAM-mediated methyl transfer process at 50 uM preincubated for 15 mins followed by addition of H3K27me and [3H]SAM as substrate measured after 90 mins by radioactive methylation assay
Target sequence in this assay (Q15910 whole entry, looked up): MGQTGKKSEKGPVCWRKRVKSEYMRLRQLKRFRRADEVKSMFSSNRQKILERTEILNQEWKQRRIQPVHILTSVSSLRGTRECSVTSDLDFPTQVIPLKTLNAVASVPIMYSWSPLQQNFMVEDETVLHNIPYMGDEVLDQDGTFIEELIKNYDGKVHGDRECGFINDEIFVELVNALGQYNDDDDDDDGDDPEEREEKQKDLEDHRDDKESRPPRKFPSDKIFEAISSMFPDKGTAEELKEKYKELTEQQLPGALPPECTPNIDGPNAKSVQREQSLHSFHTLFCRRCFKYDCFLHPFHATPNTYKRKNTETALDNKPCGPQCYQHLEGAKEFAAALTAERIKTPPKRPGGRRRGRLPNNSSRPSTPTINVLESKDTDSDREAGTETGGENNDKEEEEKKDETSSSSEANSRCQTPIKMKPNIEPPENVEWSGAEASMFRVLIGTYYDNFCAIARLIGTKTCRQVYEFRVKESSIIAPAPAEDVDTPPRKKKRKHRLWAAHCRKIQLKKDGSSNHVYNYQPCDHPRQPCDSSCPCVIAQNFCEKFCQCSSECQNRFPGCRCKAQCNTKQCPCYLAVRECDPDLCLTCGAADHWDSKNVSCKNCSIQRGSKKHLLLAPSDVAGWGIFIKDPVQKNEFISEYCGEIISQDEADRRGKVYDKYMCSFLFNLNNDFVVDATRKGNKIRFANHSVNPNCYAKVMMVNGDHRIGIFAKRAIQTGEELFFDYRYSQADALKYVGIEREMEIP
Molecule CC12CCCc3c(-c4ncn[nH]4)c(-c4ccccc4)c(=O)n(c31)-c1ccccc12 (configuration not stated) has an inhibition of 1%.
Work on Cc1ccc(C(=O)CSc2nc3sc4c(c3c(=O)n2-c2ccccc2)CCCC4)s1 yielded an inhibition of -1%.
Molecule CN1c2ccccc2Oc2nnc(N3CCN(C(c4ccccc4)c4ccccc4)CC3)cc21 has an inhibition of -7%.
For COc1ccc2nc(Nc3nc(O)cc(CSc4nnc(C)s4)n3)nc(C)c2c1, the inhibition was -9%.
With COc1ccc2nc(Nc3nc(O)cc(CSc4nnnn4-c4ccccc4)n3)nc(C)c2c1 the inhibition was 72%.
Molecule O=C1C(Cc2ccccc2)=C(O)c2cccc3c2C1=C(O)CC3 has an inhibition of 11%.
NC(=O)c1ccc(N=C2C(=O)Nc3ccc([N+](=O)[O-])cc32)cc1 showed an inhibition of 6%.
CC1=CC(C)(C)Oc2c1c(=O)n(-c1ccccc1)c(=S)n2-c1ccc(C)cc1 gave an inhibition of 4%.
In the case of COc1ccc(CN2CCN(c3cc(C)c(C#N)c4nc5ccccc5n34)CC2)cc1, the inhibition is reported as 0%.
Molecule O=C(c1cnn2c1NC(c1ccc(Br)cc1)CC2C(F)(F)F)N1CCN2CCCC2C1 (configuration not stated) has an inhibition of -2%.
In the case of Cc1cc(C)nc(Nc2n[nH]c(-c3ccccc3Cl)n2)n1, the inhibition is reported as 17%.
Molecule O=C1c2ccccc2-c2cccc3c2c1cc1ccccc13 has an inhibition of 34%.
Cc1cc(C)nc(NC2=NCCS2)n1 gave an inhibition of 16%.
NC(=O)CCN1CCN(CCOC2Cc3cc(Cl)ccc3Sc3ccccc32)CC1 (configuration not stated) showed an inhibition of -6%.
For O=C1CC(=C2c3ccccc3-c3ccccc32)C(=O)N1CCN1CCN(c2cccc(Cl)c2)CC1, the inhibition was 29%.
OCCNCC(O)Cn1c2ccc(Br)cc2c2cc(Br)ccc21 (configuration not stated) gave an inhibition of -9%.
With Cn1c(=O)cc2c3c(c(N4CCOCC4)ccc31)C(=O)c1ccccc1-2 the inhibition was 9%.
With Cc1ccc2nc(Nc3nc(O)cc(CSc4nnnn4-c4ccccc4)n3)nc(C)c2c1 the inhibition was 28%.
With O=C1c2ccccc2NC(c2c[nH]nc2-c2ccccc2)N1O (configuration not stated) the inhibition was 9%.
Work on CC(=O)Nc1cc(C(=O)OC(C(=O)c2ccccc2)c2ccccc2)ccc1C (configuration not stated) yielded an inhibition of 2%.
CCOC(=O)C[n+]1ccc2c([nH]c3ccccc32)c1C showed an inhibition of 7%.
Work on Cc1ccc2nc(N=C(N)N)nc(C)c2c1 yielded an inhibition of 3%.
Molecule O=C(/C(=C(/[O-])c1ccc(Cl)cc1)[n+]1ccc2ccccc2c1)c1ccccc1 has an inhibition of 2%.
Cc1ccc2c(C)nc(Nc3nc(O)cc(CSc4nnnn4-c4ccccc4)n3)nc2c1 gave an inhibition of 19%.
For Cc1ccc(-n2nc3cc(C)c(NC(=O)NC(=O)Cc4ccccc4)cc3n2)cc1, the inhibition was 0%.
In the case of COc1ccc(C(=O)C(OC(=O)c2ccc(C)c(NC(C)=O)c2)c2ccccc2)cc1 (configuration not stated), the inhibition is reported as 9%.
For Cc1ccc2c(c1)C1CN(C)CCC1N2C(=O)Cc1ccc(Cl)cc1 (configuration not stated), the inhibition was 4%.
With O=c1c(-c2ccccc2)c(O)c2c(n1-c1ccccc1)CCCC2 the inhibition was -2%.
Work on NS(=O)(=O)c1ccc(NC(=O)CN2C(=O)c3cccc4cccc(c34)C2=O)cc1 yielded an inhibition of 14%.
COc1ccc(-n2c(SCC(=O)c3ccc(Cl)cc3)nc3ccccc3c2=O)cc1 showed an inhibition of 5%.
N#C/C(=C/c1ccc(-c2ccc(C(N)=O)cc2)o1)c1nc2ccccc2[nH]1 gave an inhibition of 41%.
Molecule CCN(CC)c1ccc2cc(-c3nnc(Nc4cc(OC)ccc4OC)o3)c(=O)oc2c1 has an inhibition of 25%.
CCOc1ccc(NC(=N)Nc2nc(O)cc(CSc3nnnn3-c3ccccc3)n2)cc1 gave an inhibition of -1%.
For N/N=C1/CCCc2c1[nH]c1ccc(F)cc21, the inhibition was 18%.
Work on Cc1ccc2c(c1)C1CN(C)CCC1N2C(=O)c1ccc2ccccc2c1 (configuration not stated) yielded an inhibition of 0%.
In the case of O=C(NC1CCSC1=O)c1cccc(C(=O)NC2CCSC2=O)c1 (configuration not stated), the inhibition is reported as 6%.
In the case of Cc1cc(O)nc(Nc2ccccc2)n1, the inhibition is reported as -2%.
Molecule Cn1c(-c2ccc(C=O)o2)nc2c3ccccc3c3ccccc3c21 has an inhibition of 52%.

Target: T1, Histone-lysine N-methyltransferase EZH2
Assay: Inhibition of PRC2 EZH2 sub unit (unknown origin) assessed as inhibition of SAM-mediated methyl transfer process preincubated for 15 mins followed by addition of H3K27me and [3H]SAM as substrate measured after 90 mins by radioactive methylation assay
Target sequence in this assay (Q15910 whole entry): as the sequence (Q15910 whole entry, looked up) above
COc1ccc2nc(Nc3nc(O)cc(CSc4nnnn4-c4ccccc4)n3)nc(C)c2c1 gave an IC50 of 22.6 µM.

Test system: not listed separately
Assay: Antiproliferative activity against human Toledo cells expressing wild-type EZH2 assessed as growth inhibition measured after 72 hrs by AlamaBlue assay
COc1ccc2nc(Nc3nc(O)cc(CSc4nnnn4-c4ccccc4)n3)nc(C)c2c1 gave an IC50 of 24.1 µM.

Test system: DB
Assay: Antiproliferative activity against human DB cells expressing EZH2 mutant assessed as growth inhibition measured after 72 hrs by AlamaBlue assay
COc1ccc2nc(Nc3nc(O)cc(CSc4nnnn4-c4ccccc4)n3)nc(C)c2c1 showed an IC50 of 32.8 µM.
